The source of these data is PMC7765930, “Antiproliferative Phenanthrenes from Juncus tenuis: Isolation and Diversity-Oriented Semisynthetic Modification” (Molecules, 2020).

In data set [1] the test system is T-47D ductal carcinoma cell line. Kind of data set: MTT antiproliferative assay, T47D. It counts as cell-based, human. As to conditions: 72 h, 100–0.19 μM, read-out: IC50 (µM) ± SD T47D. Here is the method: (§1) Breast cancer cell line MCF-7 (ATCC® HTB-22) and the drug-resistant subline of the human breast cancer MCF-7 (ECACC 86012803; KCR) were purchased from LGC Promochem (Teddington, UK). Both cell lines were cultured in Eagle’s Minimal Essential Medium (EMEM, containing 4.5 g/L glucose) supplemented with a non-essential amino acid mixture, a selection of vitamins, and 10% heat-inactivated fetal bovine serum. In every third passage, 0.56 µg/mL doxorubicin was added to the medium, in order to maintain the ABCB1 (P-glycoprotein) expression in KCR cells. A2780 human ovarian cancer cell line (ECACC, European Collection of Authentical Cell Culture, Sigma Cat.no. 93112519) was purchased from Merck KGaA (Darmstadt, Germany). The cisplatin-resistant human ovarian cancer cell line A2780cis (ECACC European Collection of Authentical Cell Culture, Sigma Cat.no. 93112517) was purchased from Merck KGaA (Darmstadt, Germany). The human ovarian cancer cell lines were cultured in RPMI 1640 medium supplemented with 10% heat-inactivated fetal bovine serum. […] HeLa (ATCC® CCL-2™) human cervix carcinoma cell line was purchased from LGC Promochem (Teddington, UK). The cells were cultured in Eagle’s Minimal Essential Medium (EMEM, containing 4.5 g/L glucose) supplemented with a non-essential amino acid mixture, a selection of vitamins, and 10% heat-inactivated fetal bovine serum. MRC-5 human embryonal lung fibroblast cell line (ATCC® CCL-171) was purchased from LGC Promochem, Teddington, UK. The cell line was cultured in Eagle’s Minimal Essential Medium (EMEM, containing 4.5 g/L glucose) supplemented with a non-essential amino acid mixture, a selection of vitamins, and 10% heat-inactivated fetal bovine serum. HTB-26 breast adenocarcinoma cell line was purchased from LGC Promochem, Teddington, UK. The cell line was cultured in RPMI 1640 medium supplemented with 10% heat-inactivated fetal bovine serum. T-47D (ATCC® HTB-133™) ductal carcinoma cell line was purchased from LGC Promochem, Teddington, UK. The cells were cultured in RPMI 1640 medium supplemented with 10% heat-inactivated fetal bovine serum, 2 mM L-glutamine, 1 mM Na-pyruvate, and 100 mM Hepes. All of the cells were incubated at 37 °C, in a 5% CO2 and 95% air atmosphere.
(§2) The antiproliferative effect of the compounds was determined on human breast (MCF-7, KCR, T47D, and HTB-26), cervical (HeLa), and ovarian (A2780 and A2780cis) cancer cells, and on MRC-5 (human embryonic lung fibroblast) cell lines. The adherent cells were cultured in 96-well flat-bottomed microtiter plates, using EMEM supplemented with 10% heat-inactivated fetal bovine serum or RPMI 1640 supplemented with 10% heat-inactivated fetal bovine serum, respectively. The density of the cells was adjusted to 6 × 10^3 cells in 100 μL per well, the cells were seeded for 24 h at 37 °C, with 5% CO2, and then the medium was removed from the plates, and fresh medium (100 μL per well) was added to the cells. The effects of increasing concentrations of compounds on cell proliferation were tested in 96-well flat-bottomed microtiter plates. The compounds were diluted in the appropriate medium; the dilutions of compounds were performed in separate plates and then added to the cells. The starting concentration of the compounds was 100 μM, and two-fold serial dilution was performed (concentration range: 100–0.19 μM). The culture plates were incubated at 37 °C for 72 h; at the end of the incubation period, 20 μL of MTT (thiazolyl blue tetrazolium bromide, Sigma) solution (from a stock solution of 5 mg/mL) was added to each well. After incubation at 37 °C for 4 h, 100 μL of sodium dodecyl sulfate (SDS) (Sigma) solution (10% in 0.01 M HCI) was added to each well, and the plates were further incubated, at 37 °C, overnight. Cell growth was determined by measuring the optical density (OD) at 540/630 nm, with a Multiscan EX ELISA reader (Thermo Labsystems, Cheshire, WA, USA). […]
Background: Tetrazolium assays rely on reduction of a dye to a coloured formazan, in cell work by metabolically active cells.

Data set [2] has as its system HTB-26 breast adenocarcinoma cell line. The data set is described as follows: MTT antiproliferative assay, HTB-26. It counts as cell-based, human. To be noted: 100–0.19 μM, read-out: IC50 (µM) ± SD HTB-26. Here is the method: as §1, §2
Data set [3] relates to A2780 human ovarian cancer cell line. The data set is described as follows: MTT antiproliferative assay, A2780. It counts as cell-based. To be noted: 100–0.19 μM, read-out: IC50 (µM) ± SD A2780. Here is the method: as §1, §2
In data set [4] the test system is HeLa human cervix carcinoma cell line. Kind of data set: MTT antiproliferative assay, HeLa. To be noted: 72 h, 100–0.19 μM, read-out: IC50 (µM) ± SD HeLa. It counts as cell-based. Here is the method: as §1, §2
Data set [5] deals with KCR, drug-resistant subline of the human breast cancer MCF-7. Kind of data set: MTT antiproliferative assay, KCR. It counts as cell-based. To be noted: 100–0.19 μM, read-out: IC50 (µM) ± SD KCR. Here is the method:
as §1, §2

Data set [6] relates to cisplatin-resistant human ovarian cancer cell line A2780cis. The data set is described as follows: MTT antiproliferative assay, A2780cis. To be noted: 72 h, 100–0.19 μM, read-out: IC50 (µM) ± SD A2780cis. It counts as cell-based. Here is the method: as §1, §2
Another data set deals with HeLa cells. Details: method as in PMID 30127296, PMID 31005716. To be noted: previously described, read-out: IC50, antiproliferative activity on HeLa cells; cited from earlier work.
The next data set relates to caspase-3. More on the design: method as in PMID 31005716. As to conditions: cited from earlier work.
A further data set concerns tubulin. Details: method as in PMID 31005716. To be noted: at 200 µM; cited from earlier work.
Data set [7] deals with G2/M and subG1 cell cycle phase. Details: method as in PMID 31005716. To be noted: even at lower concentrations; cited from earlier work.
The test system of data set [8] is normal skin fibroblasts CCD966SK. Details: method as in PMID 31005716. As to conditions: even at higher concentrations; cited from earlier work.

SMILES strings stand for the structures. Where two headings read alike, the source gives them in different places. Some results are limits rather than exact numbers.

Usually IC50 stands for the midpoint of a concentration-inhibition curve. In the case of `N.N.[Cl][Pt][Cl]` [Cisplatin, cisplatin, reference compound], the IC50 in [1] was found to be 5.9 ± 0.1 µM; in data set [2] (72 h), 20.1 ± 2.3 µM; in data set [3] (72 h), 3.6 ± 0.3 µM; in data set [4] it was 2.3 ± 0.1 µM; in data set [5] (72 h), 6.7 ± 0.4 µM; in data set [6], 7.3 ± 0.2 µM.
Consider `C=CC1=C(C)C(=O)C=C2CCC3=C(C=CC(=O)C3(C)OC)C21OC` (stereo not drawn) [Compound 1b], for which the IC50 was 36.5 ± 1 µM in data set [1] (Homo sapiens, T47D); 74.3 ± 3.6 µM in data set [2] (Homo sapiens, HTB26, 72 h); 80.3 ± 3 µM in data set [3] (Homo sapiens, A2780, 72 h); more than 100 µM in data set [4] (Homo sapiens, HeLa); more than 100 µM in data set [5] (Homo sapiens, MCF7, 72 h); 88.2 ± 3.1 µM in [6] (Homo sapiens, A2780cis).
Regarding `C=CC1=C(C)C(=O)C=C2CCC3=C(C=CC(=O)C3(C)OCC)C21OCC` (stereo not drawn) [Compound 2a], the half-inhibitory concentration (IC50) is 56.3 ± 3.4 µM in [1] (Homo sapiens, T47D); 94.3 ± 2 µM in data set [2] (72 h); 66 ± 4.4 µM in data set [3] (Homo sapiens, A2780, 72 h); 94.7 ± 3.4 µM in [4] (Homo sapiens, HeLa); more than 100 µM in [5] (72 h); 62.9 ± 1.7 µM in [6] (Homo sapiens, A2780cis).
Turning to `C=CC1=C(C)C(=O)C=C2CCC3=C(C=CC(=O)C3(C)OCC)C21OCC` (stereo not drawn) [Compound 2b], the IC50 in [1] came out at 30.3 ± 2.5 µM; in [2] (72 h) it was 45.8 ± 3.2 µM; in [3] (72 h), 39.4 ± 3.1 µM; in [4], 61.9 ± 0.3 µM; in data set [5] (72 h), 44.2 ± 2.6 µM; in data set [6] it was 38 ± 4.6 µM.
With `C=CC1=CC(=O)C=C2CCC3=C(C=CC(=O)C3(C)OC)C12OC` (stereo not drawn) [Compound 3], the IC50 in data set [1] (Homo sapiens, T47D) came to 7 ± 1 µM; in [2] (Homo sapiens, HTB26, 72 h), 10.9 ± 0.9 µM; in data set [3] (Homo sapiens, A2780, 72 h), 8.6 ± 0.5 µM; in [4] (Homo sapiens, HeLa), 12.9 ± 0.4 µM; in data set [5] (Homo sapiens, MCF7, 72 h) it was 18.9 ± 1.4 µM; in data set [6] (Homo sapiens, A2780cis) it was 10.9 ± 2.2 µM.
For `C=CC1=CC(=O)C=C2CCC3=C(C=CC(=O)C3(C)OCC)C12OCC` (stereo not drawn) [Compound 4a], the IC50 is 11.6 ± 0.3 µM in data set [1] (Homo sapiens, T47D); 16.1 ± 0.2 µM in data set [2] (Homo sapiens, HTB26, 72 h); 25.2 ± 1.8 µM in data set [3] (Homo sapiens, A2780, 72 h); 24.4 ± 0.8 µM in [4] (Homo sapiens, HeLa); 23.5 ± 0.8 µM in data set [5] (Homo sapiens, MCF7, 72 h); 22.5 ± 0.2 µM in data set [6] (Homo sapiens, A2780cis).
Consider `C=CC1=CC(=O)C=C2CCC3=C(C=CC(=O)C3(C)OCC)C12OCC` (stereo not drawn) [Compound 4b], for which the IC50 stood at 14.2 ± 0.6 µM in data set [1]; 20.1 ± 1.1 µM in data set [2] (72 h); 22 ± 2 µM in data set [3] (72 h); 35 ± 1.5 µM in data set [4]; 29.4 ± 0.9 µM in [5] (72 h); 22.1 ± 1.6 µM in [6].
On to `C=Cc1cc(O)cc2c1-c1ccc(O)c(C)c1CC2` [effusol], for which the IC50 is 3.68 µM in the data set with HeLa cells; 24.6 ± 1.9 µM in data set [1] (Homo sapiens, T47D); 57 ± 2.7 µM in data set [2] (Homo sapiens, HTB26, 72 h); 33.1 ± 3.1 µM in data set [3] (Homo sapiens, A2780, 72 h); 2.3 ± 0.7 µM in [4] (Homo sapiens, HeLa); 39.3 ± 1.6 µM in data set [5] (Homo sapiens, MCF7, 72 h). Moreover, the IC50 in [6] (Homo sapiens, A2780cis) was 30.4 ± 0.4 µM.
As to `C=Cc1c(C)c(O)cc2c1-c1ccc(O)c(C)c1CC2` [juncusol], the half-inhibitory concentration (IC50) in the data set with HeLa cells is 0.95 µM; in data set [1] (Homo sapiens, T47D), 25 ± 0.4 µM; in data set [2] (Homo sapiens, HTB26, 72 h), 41.7 ± 3.5 µM; in [3] (Homo sapiens, A2780, 72 h), 23.8 ± 1.3 µM; in data set [4] (Homo sapiens, HeLa), 0.5 µM; in data set [5] (Homo sapiens, MCF7, 72 h) it was 35.8 ± 1.7 µM. Also, the IC50 in data set [6] (Homo sapiens, A2780cis) amounted to 37.1 ± 2.8 µM. In addition, the caspase-3 activity result in the data set on caspase-3 is “significant and concentration-dependent increase”. Also, in the data set with tubulin, the tubulin polymerization result is “decreased”. In addition, the “number of cells in the G2/M and subG1 cell cycle phase” value in data set [7] is reported as “increased”. Also, the “toxicity on normal skin fibroblasts CCD966SK” value in data set [8] is reported as “nontoxic”.
